Laboratory results reported in the NIST ThermoML archive (doi:10.1021/je201009c).

Test: xn = mol fraction of the nth substance listed
Settings: for surface tension liquid-gas: Capillary rise; for viscosity / mass density: 100.8 kPa, Liquid; for viscosity: Falling or rolling sphere viscometry; for mass density: Vibrating tube method

OCc1ccccc1 [benzenemethanol] + CCO
Settings	mass density [kg/m3]	surface tension liquid-gas [mN/m]	viscosity [mPa·s]
293.15 K, x2 = 0	1045.44	39.2	6.287
293.15 K, x2 = 0.05	1038.93	38.7	5.903
293.15 K, x2 = 0.1	1032.01	38.1	5.548
293.15 K, x2 = 0.1504	1024.72	37.5	5.197
293.15 K, x2 = 0.1999	1017.09	36.8	4.871
293.15 K, x2 = 0.2502	1008.95	36.1	4.55
293.15 K, x2 = 0.3003	1000.31	35.3	4.236
293.15 K, x2 = 0.3499	991.24	34.5	3.94
293.15 K, x2 = 0.3998	981.52	33.6	3.655
293.15 K, x2 = 0.45	971.12	32.7	3.377
293.15 K, x2 = 0.5001	960.01	31.8	3.107
293.15 K, x2 = 0.55	948.23	30.9	2.857
293.15 K, x2 = 0.5999	935.57	29.9	2.623
293.15 K, x2 = 0.65	921.93	28.9	2.392
293.15 K, x2 = 0.6997	907.34	28	2.169
293.15 K, x2 = 0.75	891.49	27.1	1.971
293.15 K, x2 = 0.7999	874.42	26.1	1.782
293.15 K, x2 = 0.8496	855.94	25.2	1.611
293.15 K, x2 = 0.8998	835.44	24.3	1.454
293.15 K, x2 = 0.95	813.26	23.3	1.305
303.15 K, x2 = 0	1037.45	38.1	4.579
303.15 K, x2 = 0.05	1030.91	37.5	4.276
303.15 K, x2 = 0.1	1024.02	36.9	4.006
303.15 K, x2 = 0.1504	1016.76	36.2	3.761
303.15 K, x2 = 0.1999	1009.06	35.5	3.529
303.15 K, x2 = 0.2502	1000.9	34.8	3.321
303.15 K, x2 = 0.3003	992.29	34.1	3.117
303.15 K, x2 = 0.3499	983.16	33.3	2.924
303.15 K, x2 = 0.3998	973.34	32.5	2.735
303.15 K, x2 = 0.45	962.91	31.6	2.542
303.15 K, x2 = 0.5001	951.76	30.7	2.368
303.15 K, x2 = 0.55	939.95	29.8	2.206
303.15 K, x2 = 0.5999	927.33	28.8	2.03
303.15 K, x2 = 0.65	913.64	27.8	1.873
303.15 K, x2 = 0.6997	898.99	26.9	1.716
303.15 K, x2 = 0.75	883.14	26	1.568
303.15 K, x2 = 0.7999	865.99	25.1	1.423
303.15 K, x2 = 0.8496	847.51	24.2	1.292
303.15 K, x2 = 0.8998	827.13	23.3	1.173
303.15 K, x2 = 0.95	805.04	22.3	1.06
313.15 K, x2 = 0	1029.61	37.2	3.335
313.15 K, x2 = 0.05	1023.04	36.6	3.171
313.15 K, x2 = 0.1	1016.21	35.9	3.002
313.15 K, x2 = 0.1504	1008.86	35.3	2.841
313.15 K, x2 = 0.1999	1001.16	34.6	2.688
313.15 K, x2 = 0.2502	992.96	33.9	2.539
313.15 K, x2 = 0.3003	984.28	33.2	2.389
313.15 K, x2 = 0.3499	975.05	32.4	2.244
313.15 K, x2 = 0.3998	965.24	31.6	2.101
313.15 K, x2 = 0.45	954.84	30.7	1.955
313.15 K, x2 = 0.5001	943.67	29.8	1.819
313.15 K, x2 = 0.55	931.78	28.9	1.684
313.15 K, x2 = 0.5999	919.04	27.9	1.561
313.15 K, x2 = 0.65	905.41	26.9	1.441
313.15 K, x2 = 0.6997	890.69	26	1.332
313.15 K, x2 = 0.75	874.75	25.1	1.236
313.15 K, x2 = 0.7999	857.51	24.2	1.146
313.15 K, x2 = 0.8496	838.83	23.3	1.048
313.15 K, x2 = 0.8998	818.48	22.4	0.972
313.15 K, x2 = 0.95	796.32	21.5	0.899
323.15 K, x2 = 0	1021.5	36.3	2.545
323.15 K, x2 = 0.05	1014.86	35.6	2.439
323.15 K, x2 = 0.1	1007.98	34.9	2.337
323.15 K, x2 = 0.1504	1000.57	34.2	2.238
323.15 K, x2 = 0.1999	992.89	33.5	2.142
323.15 K, x2 = 0.2502	984.67	32.8	2.041
323.15 K, x2 = 0.3003	975.99	32.1	1.941
323.15 K, x2 = 0.3499	966.71	31.3	1.844
323.15 K, x2 = 0.3998	956.84	30.5	1.746
323.15 K, x2 = 0.45	946.37	29.6	1.649
323.15 K, x2 = 0.5001	935.23	28.7	1.556
323.15 K, x2 = 0.55	923.28	27.8	1.462
323.15 K, x2 = 0.5999	910.48	26.8	1.368
323.15 K, x2 = 0.65	896.61	25.8	1.279
323.15 K, x2 = 0.6997	881.89	24.8	1.189
323.15 K, x2 = 0.75	865.88	23.9	1.105
323.15 K, x2 = 0.7999	848.64	23	1.022
323.15 K, x2 = 0.8496	830.07	22.1	0.937
323.15 K, x2 = 0.8998	809.62	21.2	0.854
323.15 K, x2 = 0.95	787.41	20.3	0.774
